# Data taken from patent US7977308B2, “Lys-Thr dipeptides and their use” (Sederma, priority 2005, dated 2011).
# Where no end group is shown, it is not given here. The star is where a group is joined. Palmitoyl = CCCCCCCCCCCCCCCC(=O)*
# Legend:
# Type in all cases: cell-based
# [1] = test system: Normal Human Dermal Fibroblasts (NHDF); experiment: Quantification of Collagen I synthesis using human dermal fibroblasts (direct ELISA); conditions: 3 days of incubation
# Procedure: (§1) Products were tested from 0.5 to 4 ppm depending of their solubility or toxicity. Pal-KTTKS was tested from 2 to 8 ppm.
# (§2) Pal KTTKS (Lys-Thr-Thr-Lys-Ser), Pal KT (Lys-Thr), Pal KS (Lys-Ser) were prepared in Sederma Peptide Synthesis Laboratory. TGF-betal: 10^E-6%, was the positive control for collagen I and Fibronectin studies.
# (§3) For this study, di-peptides were linked to the Palmitoic acid and were compared to Pal-KTTKS.
# (§4) Normal Human Dermal Fibroblasts (NHDF) were cultivated in culture plates in an appropriate culture medium (i.e. complete DMEM with fetal calf serum). After cell anchorage, cell layers (n=5 replicates) were rinsed with saline buffer and contact with molecules to be tested were performed in a complete DMEM without fetal calf serum. This medium contained ascorbate (sodium salt) and beta-aminopropionitrile, monofumarate. Two independent experimentations were performed for each di-peptide.
# (§5) After 3 days of incubation, supernatants were collected and frozen. Survival was estimated on cell layer using the fluorescent probe Hoescht 33258. Collagen I was estimated using an original direct ELISA method. Fibronectin was estimated using ELISA commercial kit.
# (§6) Criteria: TGF-b1 should be promoter of Collagen I and Fibronectin synthesis. Statistical analysis were performed on Collagen I data (n=5/assay) or Fibronectin data (n=5/assay). Results obtained with molecules were compared to negative control. All data were ng/10^E6 cells. A Student t test for non paired values was used; significativity was obtained if p<0.05 or p<0.01.
# (§7) The percents in the tables above were calculated from ng/10E6 data and compared to the negative control.
# [2] = test system: Normal Human Dermal Fibroblasts (NHDF); experiment: Quantification of Fibronectin synthesis using human dermal fibroblasts (ELISA commercial kit); conditions: 3 days of incubation
# Procedure: as §1, §2, §3, §4, §5, §6, §7
# [3] = test system: Normal Human Dermal Fibroblasts (NHDF); experiment: Survival estimated on cell layer using fluorescent probe Hoescht 33258; conditions: for cell proliferation / number of cells: after 3 days of culture
# Procedure: as §4, §5
molecule,measurement,setting,value
"Pal KTTKS: Palmitoyl Lys-Thr-Thr-Lys-Ser, considered as a benchmark (Palmitoyl-KTTKS)","COLLAGEN I Mean, percent of negative control",[1]; 2 ppm,+5%
same,"COLLAGEN I Mean, percent of negative control",[1]; 4 ppm,+49%
same,"COLLAGEN I Mean, percent of negative control","[1]; 4 ppm, listed as Pal-KTTKS",+49%
same,"COLLAGEN I Mean, percent of negative control",[1]; 6 ppm,+111%
same,"COLLAGEN I Mean, percent of negative control","[1]; 6 ppm, listed as Pal-KTTKS",+111%
same,"COLLAGEN I Mean, percent of negative control",[1]; 8 ppm,+144%
same,"COLLAGEN I Mean, percent of negative control","[1]; 8 ppm, listed as Pal-KTTKS",+144%
same,"FIBRONECTIN Mean, percent of negative control",[2]; 2 ppm,+20%
same,"FIBRONECTIN Mean, percent of negative control","[2]; 2 ppm, listed as Pal KTRKS",probably active
same,cell proliferation / number of cells,[3],unchanged
CCCCCCCCCCCCCCCC(=O)N[C@@H](CCCCN)C(=O)N[C@@H](CO)C(=O)O [Pal KS],toxicity on the cell layer,[3]; 4 ppm,seemed to induce a light toxicity
TGF-beta: positive control for collagen I and Fibronectin studies,"COLLAGEN I Mean, percent of negative control",[1]; 10 ppb,+95%
same,"COLLAGEN I Mean, percent of negative control","[1]; 10 ppb, listed as TGF-b1",95%
same,"FIBRONECTIN Mean, percent of negative control",[2]; 10 ppb,+69%
same,"FIBRONECTIN Mean, percent of negative control","[2]; 10 ppb, listed as TGF-b1",69%
same,cell proliferation / number of cells,[3],significant increase of cell proliferation
Pal-Lys-Thr-OH [Pal KT],"COLLAGEN I Mean, percent of negative control",[1]; 1 ppm,+21%
